Reference: PubChem BioAssay (NCI)
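Method: 48-hour compound exposure of cells in 96-well plates, five concentrations, linear interpolation of endpoints. Here, GI50 denotes the concentration required for 50% inhibition of growth. Definition used: TGI = concentration required for complete inhibition of growth.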

Experiments:
Test in all cases: inhibition of tumour cell growth, NCI panel, 48 h
[1] = system: 786-0 renal
[2] = system: A498 renal
[3] = system: A549 NSCLC
[4] = system: ACHN renal
[5] = system: BT-549 breast
[6] = system: CAKI-1 renal
[7] = system: CCRF-CEM leukemia
[8] = system: COLO 205 colon
[9] = system: DU-145 prostate
[10] = system: EKVX NSCLC
[11] = system: HCC-2998 colon
[12] = system: HCT-116 colon
[13] = system: HCT-15 colon
[14] = system: HL-60(TB) leukemia
[15] = system: HOP-62 NSCLC
[16] = system: HOP-92 NSCLC
[17] = system: HS 578T breast
[18] = system: HT29 colon
[19] = system: IGROV1 ovarian
[20] = system: K-562 leukemia
[21] = system: KM12 colon
[22] = system: LOX IMVI melanoma
[23] = system: M14 melanoma
[24] = system: MALME-3M melanoma
[25] = system: MCF7 breast
[26] = system: MDA-MB-231 breast
[27] = system: MDA-MB-435
[28] = system: MDA-MB-468 breast
[29] = system: MOLT-4 leukemia
[30] = system: NCI-H226 lung
[31] = system: NCI-H23 lung
[32] = system: NCI-H460 lung
[33] = system: NCI-H522 lung
[34] = system: OVCAR-3 ovarian
[35] = system: OVCAR-4 ovarian
[36] = system: OVCAR-5 ovarian
[37] = system: OVCAR-8 ovarian
[38] = system: PC-3 prostate
[39] = system: RPMI-8226 leukemia
[40] = system: RXF 393 renal
[41] = system: SF-268 CNS
[42] = system: SF-295 CNS
[43] = system: SF-539 CNS
[44] = system: SK-MEL-2 melanoma
[45] = system: SK-MEL-28 melanoma
[46] = system: SK-MEL-5 melanoma
[47] = system: SK-OV-3 ovarian
[48] = system: SN12C renal
[49] = system: SNB-19 CNS
[50] = system: SR leukemia
[51] = system: SW-620 colon
[52] = system: T-47D breast
[53] = system: TK-10 renal
[54] = system: U251 CNS
[55] = system: UACC-257 melanoma
[56] = system: UACC-62 melanoma
[57] = system: UO-31 renal
[58] = system: SNB-75 CNS

With `Cn1cc(-c2cc3nc(-c4cn(C)c5ncccc45)cc(N)n3n2)c2cc(F)ccc21` the GI50 [1] was 4.82 µM, the TGI [1] was 19.8 µM and the GI50 [2] was 50 µM. It also gave a TGI [2] of over 100 µM, a GI50 [3] of 7.71 µM and a TGI [3] of over 100 µM. The GI50 [4] was 4.21 µM, the TGI [4] was 20.6 µM and the GI50 [5] was 13.3 µM. The TGI [5] was 48 µM, the GI50 [6] was 13 µM and the TGI [6] was over 100 µM. The GI50 [7] was 7.83 µM, the TGI [7] was over 100 µM and the GI50 [8] was 6.78 µM. It also gave a TGI [8] of over 100 µM, a GI50 [9] of 8.97 µM and a TGI [9] of over 100 µM. It also gave a GI50 [10] of 19 µM, a TGI [10] of over 100 µM and a GI50 [11] of 61.2 µM. The TGI [11] was over 100 µM, the GI50 [12] was over 100 µM and the TGI [12] was over 100 µM. For the same compound, the GI50 [13] was over 100 µM, the TGI [13] was over 100 µM and the GI50 [14] was over 100 µM. For the same compound, the TGI [14] was over 100 µM, the GI50 [15] was 4.05 µM and the TGI [15] was 16.6 µM. For the same compound, the GI50 [16] was 11.2 µM, the TGI [16] was 46.7 µM and the GI50 [17] was 11.3 µM. For the same compound, the TGI [17] was 69.6 µM, the GI50 [18] was 4.14 µM and the TGI [18] was 28.4 µM. The GI50 [19] was 4.45 µM, the TGI [19] was 53.1 µM and the GI50 [20] was 10.5 µM. It also gave a TGI [20] of over 100 µM, a GI50 [21] of over 100 µM and a TGI [21] of over 100 µM. The GI50 [22] was 2.43 µM, the TGI [22] was 5.78 µM and the GI50 [23] was 57 µM. For the same compound, the TGI [23] was over 100 µM, the GI50 [24] was 10.6 µM and the TGI [24] was 37.7 µM. It also gave a GI50 [25] of 13.4 µM, a TGI [25] of over 100 µM and a GI50 [26] of 9.62 µM. For the same compound, the TGI [26] was 26.8 µM, the GI50 [27] was over 100 µM and the TGI [27] was over 100 µM. It also gave a GI50 [28] of 3.81 µM, a TGI [28] of 22.1 µM and a GI50 [29] of 20 µM. For the same compound, the TGI [29] was over 100 µM, the GI50 [30] was 4.04 µM and the TGI [30] was 20.2 µM. It also gave a GI50 [31] of 13.7 µM, a TGI [31] of 58.2 µM and a GI50 [32] of 5.43 µM. It also gave a TGI [32] of over 100 µM, a GI50 [33] of 10.8 µM and a TGI [33] of 30.6 µM. The GI50 [34] was 14.1 µM, the TGI [34] was 57.8 µM and the GI50 [35] was 4.12 µM. For the same compound, the TGI [35] was 20.9 µM, the GI50 [36] was 25.2 µM and the TGI [36] was over 100 µM. For the same compound, the GI50 [37] was 4.6 µM, the TGI [37] was 40.5 µM and the GI50 [38] was 11 µM. The TGI [38] was over 100 µM, the GI50 [39] was 13.6 µM and the TGI [39] was over 100 µM. The GI50 [40] was 2.61 µM, the TGI [40] was 9.35 µM and the GI50 [41] was 15.6 µM. It also gave a TGI [41] of over 100 µM, a GI50 [42] of 3.22 µM and a TGI [42] of 14 µM. It also gave a GI50 [43] of 10.6 µM, a TGI [43] of 28.8 µM and a GI50 [44] of 10.4 µM. The TGI [44] was 23.3 µM, the GI50 [45] was over 100 µM and the TGI [45] was over 100 µM. For the same compound, the GI50 [46] was 46.2 µM, the TGI [46] was over 100 µM and the GI50 [47] was 14.4 µM. For the same compound, the TGI [47] was 34.5 µM, the GI50 [48] was 9.61 µM and the TGI [48] was over 100 µM. It also gave a GI50 [49] of 5.79 µM, a TGI [49] of 24.3 µM and a GI50 [50] of 2.48 µM. It also gave a TGI [50] of over 100 µM, a GI50 [51] of 52.7 µM and a TGI [51] of over 100 µM. The GI50 [52] was 6.15 µM, the TGI [52] was 67.1 µM and the GI50 [53] was 10.3 µM. It also gave a TGI [53] of 31.3 µM, a GI50 [54] of 4.12 µM and a TGI [54] of 15.4 µM. For the same compound, the GI50 [55] was 65.6 µM, the TGI [55] was over 100 µM and the GI50 [56] was 20.4 µM. For the same compound, the TGI [56] was over 100 µM, the GI50 [57] was 31.9 µM and the TGI [57] was over 100 µM.

`CN(C)c1nc(NCCNS(=O)(=O)c2ccc(C(=O)/C=C/c3ccccc3)cc2)nc(N2CCOCC2)n1` gave a GI50 [1] of 14.8 µM, a TGI [1] of 29.1 µM and a GI50 [2] of 14.6 µM. For the same compound, the TGI [2] was 27.8 µM, the GI50 [3] was 13.6 µM and the TGI [3] was 28.3 µM. The GI50 [4] was 18.2 µM, the TGI [4] was 36.3 µM and the GI50 [5] was 11.2 µM. The TGI [5] was 23.7 µM, the GI50 [6] was 12.2 µM and the TGI [6] was 24.6 µM. For the same compound, the GI50 [7] was 4.41 µM, the TGI [7] was 75.9 µM and the GI50 [8] was 20.2 µM. The TGI [8] was 40.3 µM, the GI50 [9] was 15.1 µM and the TGI [9] was 28.4 µM. It also gave a GI50 [10] of 14.7 µM, a TGI [10] of 30.6 µM and a GI50 [11] of 16.7 µM. It also gave a TGI [11] of 31.1 µM, a GI50 [12] of 1.82 µM and a TGI [12] of 3.59 µM. It also gave a GI50 [13] of 5.21 µM, a TGI [13] of 20.5 µM and a GI50 [14] of 6.18 µM. The TGI [14] was 42.1 µM, the GI50 [15] was 16.4 µM and the TGI [15] was 32.1 µM. It also gave a GI50 [16] of 12.2 µM, a TGI [16] of 26.6 µM and a GI50 [17] of 17.1 µM. It also gave a TGI [17] of 64.4 µM, a GI50 [18] of 3.8 µM and a TGI [18] of 13.1 µM. For the same compound, the GI50 [19] was 15.3 µM, the TGI [19] was 31.9 µM and the GI50 [20] was 2.19 µM. The TGI [20] was over 100 µM, the GI50 [21] was 2 µM and the TGI [21] was 4.23 µM. It also gave a GI50 [22] of 1.97 µM, a TGI [22] of 4.13 µM and a GI50 [23] of 14.6 µM. For the same compound, the TGI [23] was 31.6 µM, the GI50 [24] was 15.2 µM and the TGI [24] was 29.3 µM. For the same compound, the GI50 [25] was 3.49 µM, the TGI [25] was 13.8 µM and the GI50 [26] was 13.9 µM. The TGI [26] was 27.6 µM, the GI50 [27] was 14.7 µM and the TGI [27] was 28.3 µM. For the same compound, the GI50 [28] was 4.17 µM, the TGI [28] was 17.7 µM and the GI50 [29] was 4.27 µM. It also gave a TGI [29] of over 100 µM, a GI50 [30] of 13.5 µM and a TGI [30] of 31.7 µM. For the same compound, the GI50 [31] was 16 µM, the TGI [31] was 30.4 µM and the GI50 [32] was 18.2 µM. It also gave a TGI [32] of 38.3 µM, a GI50 [33] of 13.6 µM and a TGI [33] of 27.1 µM. It also gave a GI50 [34] of 15.3 µM, a TGI [34] of 28.6 µM and a GI50 [35] of 14.3 µM. It also gave a TGI [35] of 27.8 µM, a GI50 [36] of 12.1 µM and a TGI [36] of 26 µM. The GI50 [37] was 16.4 µM, the TGI [37] was 31.8 µM and the GI50 [38] was 8.63 µM. It also gave a TGI [38] of 23.6 µM, a GI50 [39] of 3.25 µM and a TGI [39] of 11.4 µM. The GI50 [40] was 7.87 µM, the TGI [40] was 22.8 µM and the GI50 [41] was 13.7 µM. It also gave a TGI [41] of 31 µM, a GI50 [42] of 15.6 µM and a TGI [42] of 30.4 µM. It also gave a GI50 [43] of 11.1 µM, a TGI [43] of 24.3 µM and a GI50 [44] of 15.3 µM. It also gave a TGI [44] of 29.5 µM, a GI50 [45] of 17.2 µM and a TGI [45] of 33.1 µM. The GI50 [46] was 15.9 µM, the TGI [46] was 29.4 µM and the GI50 [47] was 15.6 µM. It also gave a TGI [47] of 29.8 µM, a GI50 [48] of 14.6 µM and a TGI [48] of 28.6 µM. For the same compound, the GI50 [49] was 14.8 µM, the TGI [49] was 29.1 µM and the GI50 [58] was 5.49 µM. For the same compound, the TGI [58] was 19.8 µM, the GI50 [50] was 3.2 µM and the TGI [50] was over 100 µM. For the same compound, the GI50 [51] was 3.41 µM, the TGI [51] was 12.7 µM and the GI50 [52] was 16 µM. It also gave a TGI [52] of 37.4 µM, a GI50 [53] of 16.4 µM and a TGI [53] of 30.2 µM. The GI50 [54] was 11.7 µM, the TGI [54] was 25.9 µM and the GI50 [55] was 17.9 µM. The TGI [55] was 32.3 µM, the GI50 [56] was 12 µM and the TGI [56] was 25 µM. It also gave a GI50 [57] of 11.2 µM and a TGI [57] of 25 µM.
